Experimental data: patent US20140243332A1, “METHODS OF TREATING CANCERS CHARACTERIZED BY ABERRENT ROS1 ACTIVITY” (Oregon Health & Science University, priority 2013, published 2014)

Tests used:
FIG-ROS = FIG-ROS (Homo sapiens, UniProt P08922); test: Immunoblot of NIH3T3 FIG-ROS lysates; type: cell-based; design: expressed in transfected cells; host or cells: Ba/F3 (A14) and NIH3T3 (A24), retroviral pMSCV-IRES-GFP; the other entry of the earlier key: GOPC (Q9HD26, Golgi-associated PDZ and coiled-coil motif-containing protein); settings: NIH3T3 FIG-ROS cells, 1 hour, at lower doses than crizotinib
Procedure: (§1) The parental Ba/F3 cell line was cultured in RPMI 1640 medium with 10% FBS, L-glutamine, penicillin/streptomycin and 15% WEHI-conditioned media. Ba/F3 cell lines were maintained at densities of 0.5×10^6 to 1.5×10^6 per ml of media. FIG-ROS and SLC-ROS Ba/F3 lines were created by infecting the parental Ba/F3 with retrovirus expressing either human FIG-ROS-S (indicated FIG-ROS herein) or SLC-ROS-S (indicated SLC-ROS herein). Stable transfectant lines were sorted for GFP expression on a FACS Aria® flow cytometer. Cells were counted daily using Guava ViaCount® reagent and Guava Personal Cell Analysis® flow cytometer. […] Early passage NIH3T3 cells were infected with retrovirus expressing either FIG-ROS or SLC-ROS and sorted for GFP expression as described above for Ba/F3 cells. HCC78 cells were cultured in RPMI 1640 medium with 10% FBS, L-glutamine, and penicillin/streptomycin. This media is referred to as RPMI-10% FBS herein.

Ba/F3 ALK F1174L cells = Ba/F3 ALK F1174L cells (Homo sapiens, UniProt Q9UM73, F1174L, cells depend on it); test: Cell viability (MTS) assay, Ba/F3 ALK F1174L; type: cell-based; settings: 72 hours, read-out: IC50 (the source's name)
[1] = biological target: Ba/F3 FIG-ROS kinase domain mutants (Homo sapiens, UniProt P08922, cells depend on it, form not given); test: Cell viability assay, all tested Ba/F3 FIG-ROS kinase domain mutants; type: cell-based; settings: V2098I, G1971E, L1982F, C2060G, L1947R, E1935G; read-out: IC50 across all tested FIG-ROS mutants
Procedure: (§2) Cell lines were distributed in 96-well plates and incubated with the indicated concentrations of inhibitor for 72 hours. […] Ba/F3 cell lines were plated at 4×10^3 cells/well. HCC78 and mCC cell lines were plated at 1.5×10^3 cells/well. All cell types were seeded in a final volume of 80 microliters. A 20 microliter volume of five-fold concentrated inhibitor media was added. Cell proliferation was measured using a […] viability assay (CellTiter96 Aqueous One® Solution; Promega). A BioTek Synergy 2® plate reader was used to read the absorbance at 490 nm at 30 minutes and 1 hour after addition of MTS. To facilitate comparison between experiments, the raw MTS absorbance of vehicle (0.1% DMSO) treated cells was set to 1 and absorbance from inhibitor treated wells was normalized to the vehicle treated value. […] Data were normalized using Microsoft Excel® and further non-linear regression curve fit analysis of the normalized data for determination of IC50 was performed using Graphpad Prism® software.
(§3) The FIG-ROS-S fusion gene was synthesized using the GeneArt® service. FIG-ROS-S is denoted as FIG-ROS herein.

SLC-ROS = SLC-ROS (Homo sapiens, UniProt P08922); test: Immunoblot of Ba/F3 SLC-ROS lysates; type: cell-based; design: SLC34A2 N-terminal portion, fusion partner; expressed in transfected cells; host or cells: Ba/F3 (A15), retroviral pMIG; the other entry of the earlier key: SLC34A2 (O95436, Sodium-dependent phosphate transport protein 2B); settings: Ba/F3 SLC-ROS cells, increasing amounts, immunoblot FIG. 1C
Procedure: FIG. 1C is an image of an immunoblot of lysates of Ba/F3 FIG-ROS and Ba/F3 SLC-ROS and the indicated downstream effectors after treatment with the indicated compounds. Images shown are representative of three independent experiments.
Ba/F3 FIG-ROS, Ba/F3 SLC-ROS, HCC78 and mCC cell lines were treated with the indicated concentration of inhibitors for 1-2 hours. […] The protein content of the cell lysates was determined and lysates were either used for immunoprecipitation where indicated or extracted with SDS Sample buffer for 15 minutes at 80° C. Proteins were transferred to Immobilon-FL membranes and immunoblotted with antibodies specific for phospho-ROS1 (Cell Signaling Technology (CST) #3078), total ROS1 (CST #3266), phopsho-Shp2 (CST #3751), total Shpt (CST #3752), phospho-Stat3 (CST #9145), total Stat3 (CST #4904), phospho-Erk1/2 (CST #9101), total Erk2 (Santa Cruz #SC-1647), phospho-S6 (CST #4858), total S6 (CST #2216), phospho-Src (CST #2105), total Src (CST #2110), α-tubulin (Sigma T6199), or β-actin (Sigma A1978) as indicated. Images of the blots were generated by the LI-COR Odyssey® imaging system, following the manufacturer's protocol for immunoblot detection with use of IR-dye conjugated secondary antibodies.

[2] = biological target: Ba/F3 FIG-ROS E1935G cells (Homo sapiens, UniProt P08922, E1935G, cells depend on it); test: Cell viability assay, Ba/F3 FIG-ROS E1935G; type: cell-based; settings: Table 3, Ba/F3 FIG-ROS E1935G; nM; read-out: IC50 (the source's name)
Procedure: as §2, §3

HCC78 cells = test: Cell viability (MTS) assay, HCC78; type: cell-based, human; settings: Homo sapiens, 72 hour exposure, read-out: IC50 HCC78 cell growth
Procedure: as §1

Ba/F3 SLC-ROS cells = biological target: T1, Ba/F3 SLC-ROS cells (Homo sapiens, UniProt P08922); test: Cell viability (MTS) assay, Ba/F3 SLC-ROS; type: cell-based; settings: 72 hours, read-out: IC50 (the source's name)
T1 construct: SLC-ROS-S (SLC-ROS) was cloned from cDNA made from HCC78 cells; fused on or other part: GFP is co-expressed from an IRES in pMIG and is not fused; O95436 (Sodium-dependent phosphate transport protein 2B)
Procedure: as §1
[…]. The Ba/F3 parental line was also tested. (O'Dwyer M E and Druker B J, Lancet Oncology 1, 207-211 (2000); Walters D K et al, Cancer Cell 10, 65-75 (2006); and Heukamp L C et al, Science Translational Medicine 4, 141ra191 (2012); […].

## COc1cc2c(Oc3ccc(NC(=O)C4(C(=O)Nc5ccc(F)cc5)CC4)cc3F)ccnc2cc1OCCCN1CCOCC1 [foretinib, N1′-[3-fluoro-4-[[6-methoxy-7-(3-morpholinopropoxy)-4-quinolyl]oxy]phenyl]-N1-(4-fluorophenyl)cyclopropane-1,1-dicarboxamide]
FIG-ROS
  FIG-ROS phosphorylation: strongly suppressed
Ba/F3 ALK F1174L cells
  GI50: 1800 nM
[1]
  GI50: < 20 nM
SLC-ROS
  autophosphorylation of SLC-ROS and ROS1-driven signaling (phospho-Shp2, phospho-ERK1/2): dose dependent decrease
[2]
  GI50: 6.6 nM
HCC78 cells
  IC50: 425 nM
Ba/F3 SLC-ROS cells
  GI50: 10 nM
